The record followed here is ChEMBL document CHEMBL1151088 (1996).

Converted amounts (≈) assume the structure as drawn.

Holding throughout (format): functional
The subject of test [1] is Staphylococcus aureus. As to the kind of experiment: In vitro antimicrobial activity against methicillin resistant Staphylococcus aureus 1131.
The test system of test [2] is Staphylococcus aureus. In words: In vitro antimicrobial activity against penicillin resistant Staphylococcus aureus 853.
In test [3] the test system is Staphylococcus epidermidis. As to the kind of experiment: In vitro antimicrobial activity against Staphylococcus epidermidis.
Another test relates to Acholeplasma laidlawii. As to the kind of experiment: In vitro antimicrobial activity against Acholeplasma laidlawii.
A further test has as its system Escherichia coli. As to the kind of experiment: In vitro antimicrobial activity against Escherichia coli 182+PMBN.
A further test concerns Saccharomyces cerevisiae. In words: In vitro antimicrobial activity against Saccharomyces cerevisiae.
The test system of the next test is Candida albicans. In words: In vitro antimicrobial activity against Candida albicans.
Test [4] has as its system Staphylococcus aureus. As to the kind of experiment: In vitro antimicrobial activity against penicillin sensitive Staphylococcus aureus 663.
In a further test the test system is Bacillus cereus. As to the kind of experiment: In vitro antimicrobial activity against Bacillus cereus.

In the case of `CCCOc1c2cccc1Cc1cc3cc(c1OCCC)Cc1cccc(c1OCCC)Cc1cc(cc(c1OCCC)C2)C(=O)N[C@@H](C)C(=O)NCCNCCNC(=O)[C@H](C)NC3=O`, the MIC in the test with Staphylococcus aureus [1] was 4 µg/mL (≈ 4.49 µM); against Staphylococcus aureus [2] it was 16 µg/mL (≈ 18 µM); in [3], 4 µg/mL (≈ 4.49 µM); against Acholeplasma laidlawii it was greater than 128 µg/mL; with Escherichia coli it was 32 µg/mL (≈ 35.9 µM); against Saccharomyces cerevisiae it was greater than 128 µg/mL. Also, the MIC is greater than 128 µg/mL with Candida albicans, 8 µg/mL (≈ 8.99 µM) with Staphylococcus aureus [4] and 16 µg/mL (≈ 18 µM) with Bacillus cereus.

Regarding `CN[C@H](CC(C)C)C(=O)N[C@H]1C(=O)N[C@@H](CC(N)=O)C(=O)N[C@H]2C(=O)N[C@H]3C(=O)N[C@H](C(=O)N[C@H](C(=O)O)c4cc(O)cc(O)c4-c4cc3ccc4O)[C@H](O)c3ccc(c(Cl)c3)Oc3cc2cc(c3O[C@@H]2O[C@H](CO)[C@@H](O)[C@H](O)[C@H]2O[C@H]2C[C@](C)(N)[C@H](O)[C@H](C)O2)Oc2ccc(cc2Cl)[C@H]1O` [VANCOMYCIN], the MIC with Acholeplasma laidlawii is greater than 128 µg/mL; against Saccharomyces cerevisiae, greater than 128 µg/mL; with Candida albicans, greater than 128 µg/mL; against Bacillus cereus, 2 µg/mL (≈ 1.38 µM).

As to `CCCOc1c2cccc1Cc1cc3cc(c1OCCC)Cc1cccc(c1OCCC)Cc1cc(cc(c1OCCC)C2)C(=O)N[C@@H](C)C(=O)NCCN(C(=O)OC(C)(C)C)CCNC(=O)[C@H](C)NC3=O`, the MIC was 64 µg/mL (≈ 64.6 µM) against Staphylococcus aureus [1], greater than 64 µg/mL against Staphylococcus aureus [2], 32 µg/mL (≈ 32.3 µM) in [3] and 64 µg/mL (≈ 64.6 µM) with Staphylococcus aureus [4].

Consider `CCCOc1c2cccc1Cc1cc3cc(c1OCCC)Cc1cccc(c1OCCC)Cc1cc(cc(c1OCCC)C2)C(=O)N[C@@H](C)C(=O)N[C@@H](C)C(=O)NCCNCCNC(=O)[C@H](C)NC(=O)[C@@H](C)NC3=O` [VANCOMYCIN MIMIC], for which the MIC (with Staphylococcus aureus [1]; against Staphylococcus aureus [2]; in test [3]; against Staphylococcus aureus [4]) was 32 µg/mL (≈ 31 µM) each time.

As to `CCCOc1c2cccc1Cc1cc3cc(c1OCCC)Cc1cccc(c1OCCC)Cc1cc(cc(c1OCCC)C2)C(=O)N[C@H](C)C(=O)NCCNCCNC(=O)[C@@H](C)NC3=O`, the MIC in the test on Staphylococcus aureus [1] came to 4 µg/mL (≈ 4.49 µM); against Staphylococcus aureus [2], 8 µg/mL (≈ 8.99 µM); in [3], 8 µg/mL (≈ 8.99 µM); in the test on Staphylococcus aureus [4], 8 µg/mL (≈ 8.99 µM).
